According to paper PMC6253949, “The Inhibitory Action of Kohamaic Acid A Derivatives on Mammalian DNA Polymerase β” (Molecules, 2008):

Experiments:
[1] = molecular target: T1, T4 DNA polymerase (Enterobacteria phage T4, UniProt P04415); test: DNA polymerase assay, T4 pol; assay type: biochemical
T1 construct: purchased Takara (Kyoto, Japan)
T1 sequence (P04415 1-898): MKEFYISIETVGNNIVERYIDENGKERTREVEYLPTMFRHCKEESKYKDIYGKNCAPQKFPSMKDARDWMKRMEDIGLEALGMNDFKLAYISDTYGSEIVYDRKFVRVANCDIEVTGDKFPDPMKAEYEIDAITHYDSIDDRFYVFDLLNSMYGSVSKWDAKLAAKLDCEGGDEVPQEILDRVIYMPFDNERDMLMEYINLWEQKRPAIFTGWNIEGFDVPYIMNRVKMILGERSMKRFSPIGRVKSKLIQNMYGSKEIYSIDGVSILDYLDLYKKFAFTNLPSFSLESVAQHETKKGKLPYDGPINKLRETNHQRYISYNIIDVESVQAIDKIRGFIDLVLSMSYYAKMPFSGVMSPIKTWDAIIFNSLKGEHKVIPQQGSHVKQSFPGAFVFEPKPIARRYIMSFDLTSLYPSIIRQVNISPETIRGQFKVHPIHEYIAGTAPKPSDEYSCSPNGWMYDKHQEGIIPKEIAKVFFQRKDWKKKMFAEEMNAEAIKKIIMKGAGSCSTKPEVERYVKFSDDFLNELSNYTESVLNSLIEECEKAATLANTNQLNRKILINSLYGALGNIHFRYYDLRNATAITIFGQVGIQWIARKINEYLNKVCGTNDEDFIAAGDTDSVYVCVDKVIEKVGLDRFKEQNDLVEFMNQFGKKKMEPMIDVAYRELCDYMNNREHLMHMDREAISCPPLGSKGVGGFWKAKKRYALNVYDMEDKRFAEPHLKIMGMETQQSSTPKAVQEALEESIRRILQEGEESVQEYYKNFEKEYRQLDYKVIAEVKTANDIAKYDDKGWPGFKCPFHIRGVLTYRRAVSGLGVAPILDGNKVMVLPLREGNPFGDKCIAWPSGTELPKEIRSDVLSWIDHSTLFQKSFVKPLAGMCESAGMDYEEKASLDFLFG
From the text: (§1) Pol α was purified from calf thymus by immuno-affinity column chromatography as described by Tamai et al.. Recombinant rat pol β was purified from E. coli JMpβ5 as described by Date et al.. The human pol γ catalytic gene was cloned into pFastBac. Histidine-tagged enzyme was expressed using the BAC-TO-BAC HT Baculovirus Expression System according to the supplier's manual (LIFE TECHNOLOGIES, MD, USA) and purified using ProBoundresin (Invitrogen Japan, Tokyo, Japan). Human pols δ and ε were purified by the nuclear fractionation of human peripheral blood cancer cells (Molt-4) using the second subunit of pols δ and ε-conjugated affinity column chromatography, respectively. Recombinant human pols η and ι tagged with His6 at their C-terminal were expressed in SF9 insect cells using the baculovirus expression system, and were purified as described previously. A truncated form of pol κ (i.e., hDINB1DC) with 6 x His-tags attached at the C-terminal was overproduced using the BAC-to-BAC Baculovirus Expression System kit (GIBCO BRL, MD, USA) and purified as described previously. […]
(§2) For pols, poly(dA)/oligo(dT)12-18 (A/T = 2/1) and dTTP were used as the DNA template-primer and nucleotide (i.e., dNTP) substrate, respectively. […] Activity without the inhibitor was considered 100%, and the remaining activity at each concentration of the inhibitor was determined relative to this value. […]

[2] = molecular target: T2, Human DNA polymerase ε (Homo sapiens, UniProt Q07864); test: DNA polymerase assay, human pol ε; assay type: biochemical
T2 construct: Human pols δ and ε were purified by the nuclear fractionation of human peripheral blood cancer cells (Molt-4); endogenous in cells; host or cells: Molt-4
T2 sequence (Q07864 whole entry): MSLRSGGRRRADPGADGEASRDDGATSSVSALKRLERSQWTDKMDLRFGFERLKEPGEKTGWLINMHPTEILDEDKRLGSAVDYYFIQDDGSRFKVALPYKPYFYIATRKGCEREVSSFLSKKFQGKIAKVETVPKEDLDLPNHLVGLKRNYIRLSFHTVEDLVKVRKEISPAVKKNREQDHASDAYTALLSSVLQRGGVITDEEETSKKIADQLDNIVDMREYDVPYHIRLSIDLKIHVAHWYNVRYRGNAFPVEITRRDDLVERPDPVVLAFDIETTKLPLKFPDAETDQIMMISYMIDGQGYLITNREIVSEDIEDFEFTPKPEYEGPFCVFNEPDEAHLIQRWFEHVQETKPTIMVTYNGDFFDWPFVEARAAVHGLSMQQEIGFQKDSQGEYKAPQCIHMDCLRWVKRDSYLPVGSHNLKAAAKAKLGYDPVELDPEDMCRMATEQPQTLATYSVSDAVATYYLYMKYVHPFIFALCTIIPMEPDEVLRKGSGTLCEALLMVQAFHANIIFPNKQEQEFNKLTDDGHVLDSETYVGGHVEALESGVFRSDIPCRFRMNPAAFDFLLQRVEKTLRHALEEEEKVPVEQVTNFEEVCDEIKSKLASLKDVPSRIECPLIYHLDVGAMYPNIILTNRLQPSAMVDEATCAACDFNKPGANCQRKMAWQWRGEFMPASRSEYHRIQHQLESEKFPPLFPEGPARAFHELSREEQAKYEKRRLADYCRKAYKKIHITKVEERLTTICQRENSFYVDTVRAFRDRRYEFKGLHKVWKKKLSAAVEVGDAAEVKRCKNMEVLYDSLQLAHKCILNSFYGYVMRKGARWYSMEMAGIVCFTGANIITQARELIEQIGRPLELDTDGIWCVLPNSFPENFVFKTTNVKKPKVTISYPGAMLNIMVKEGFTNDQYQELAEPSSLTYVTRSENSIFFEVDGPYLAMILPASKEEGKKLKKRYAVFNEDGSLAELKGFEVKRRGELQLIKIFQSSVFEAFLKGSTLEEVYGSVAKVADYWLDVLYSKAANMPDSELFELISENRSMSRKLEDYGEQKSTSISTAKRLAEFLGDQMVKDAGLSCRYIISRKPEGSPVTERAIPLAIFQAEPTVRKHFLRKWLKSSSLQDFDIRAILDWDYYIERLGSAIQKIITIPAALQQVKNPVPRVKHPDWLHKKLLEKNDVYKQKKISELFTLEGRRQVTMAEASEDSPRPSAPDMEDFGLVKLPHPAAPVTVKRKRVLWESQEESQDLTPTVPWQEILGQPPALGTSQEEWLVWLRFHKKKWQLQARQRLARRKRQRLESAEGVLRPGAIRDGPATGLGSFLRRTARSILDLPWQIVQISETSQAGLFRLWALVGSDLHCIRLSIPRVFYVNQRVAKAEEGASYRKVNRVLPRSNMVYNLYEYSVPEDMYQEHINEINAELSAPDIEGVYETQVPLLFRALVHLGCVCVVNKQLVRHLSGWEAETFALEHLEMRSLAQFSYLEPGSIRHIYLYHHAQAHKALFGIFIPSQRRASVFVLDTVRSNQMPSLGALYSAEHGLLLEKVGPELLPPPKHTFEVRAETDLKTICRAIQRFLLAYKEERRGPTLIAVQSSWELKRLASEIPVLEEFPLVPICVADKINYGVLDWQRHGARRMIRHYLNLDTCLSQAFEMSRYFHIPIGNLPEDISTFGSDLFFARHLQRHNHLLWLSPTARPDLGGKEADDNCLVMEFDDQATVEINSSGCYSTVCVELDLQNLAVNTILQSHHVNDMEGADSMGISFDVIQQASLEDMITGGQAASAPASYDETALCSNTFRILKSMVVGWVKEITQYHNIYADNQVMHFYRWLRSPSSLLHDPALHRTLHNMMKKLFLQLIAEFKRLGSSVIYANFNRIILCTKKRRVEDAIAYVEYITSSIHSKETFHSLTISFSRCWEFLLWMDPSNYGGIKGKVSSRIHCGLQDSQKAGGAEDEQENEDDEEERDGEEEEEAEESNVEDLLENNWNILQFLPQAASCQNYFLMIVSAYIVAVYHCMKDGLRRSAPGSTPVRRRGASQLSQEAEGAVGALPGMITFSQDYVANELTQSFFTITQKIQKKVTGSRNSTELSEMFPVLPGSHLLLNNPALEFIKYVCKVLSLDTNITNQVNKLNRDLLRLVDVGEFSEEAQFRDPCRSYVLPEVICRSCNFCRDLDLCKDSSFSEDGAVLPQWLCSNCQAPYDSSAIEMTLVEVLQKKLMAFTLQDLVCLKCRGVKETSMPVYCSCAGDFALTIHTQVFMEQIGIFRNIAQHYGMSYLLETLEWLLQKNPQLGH
From the text: as §1, §2

CC1=CC[C@H]2C(C)(C)CCC[C@]2(C)[C@H]1CCCCCCCCCCCCCCCCC(=O)O (relative stereo) [compound 11, (1S*,4aS*,8aS*)-17-(1,4,4a,5,6,7,8,8a-octahydro-2,5,5,8a-tetramethylnaphthalen-1-yl)heptadecanoic acid]
IC50 [1]: > 200 µM | IC50 [2]: 3.22 ± 0.16 µM
